Results published in patent US6737383B1, “Herbicidal oxadiazolidines” (priority 1999, dated 2004).

Assays:
morningglory = test: Test B pre/postemergence morningglory; assay type: in vivo, Ipomoea hederacea
How it was run: (§1)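 Response is a visual 0-to-10 score relative to untreated plants, where 0 means no effect and 10 means complete control, taken twelve to sixteen days after application. Treatments went onto soil at planting and onto foliage of 1- to 4-leaf plants, using a surfactant-containing non-phytotoxic solvent.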

blackgrass = test: Test B pre/postemergence blackgrass; assay type: in vivo, Alopecurus myosuroides
How it was run: as §1

corn = test: Test B pre/postemergence corn; assay type: in vivo, Zea mays
How it was run: as §1

surinam grass = test: Test B pre/postemergence surinam grass; assay type: in vivo, Brachiaria decumbens
How it was run: as §1

crabgrass = test: Test B pre/postemergence crabgrass; assay type: in vivo, Digitaria sanguinalis
How it was run: as §1

wheat = test: Test B pre/postemergence wheat; assay type: in vivo, Triticum aestivum
How it was run: as §1

bamyardgrass = test: Test B flood test barnyardgrass; assay type: in vivo, Echinochloa crus-galli
How it was run: (§2)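 Plants were grown to the 2-leaf stage before treatment with test chemical, then held in a greenhouse for twelve to sixteen days. Injury was visually rated against untreated controls on a 0–10 scale, where 0 is no effect and 10 is complete control.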

wild oat = test: Test B pre/postemergence wild oat; assay type: in vivo, Avena fatua
How it was run: as §1

rape = test: Test B pre/postemergence rape; assay type: in vivo, Brassica napus
How it was run: as §1

giant foxtail = test: Test B pre/postemergence giant foxtail; assay type: in vivo, Setaria faberii
How it was run: as §1

smallflower flatsedge = test: Test B flood test smallflower flatsedge; assay type: in vivo, Cyperus difformis
How it was run: as §2

sugar beet = test: Test B pre/postemergence sugar beet; assay type: in vivo, Beta vulgaris
How it was run: as §1

pigweed = test: Test B pre/postemergence pigweed; assay type: in vivo, Amaranthus retroflexus
How it was run: as §1

bedstraw = test: Test B pre/postemergence bedstraw; assay type: in vivo, Galium aparine
How it was run: as §1

purple nutsedge = test: Test B pre/postemergence purple nutsedge; assay type: in vivo, Cyperus rotundus
How it was run: as §1

rice = test: Test B flood test rice; assay type: in vivo, Oryza sativa
How it was run: as §2

[1] = Postemergence, Rate 62 g/ha, scale 0 to 10, 0 is no effect, 10 is complete control
[2] = Postemergence, Rate 250 g/ha, scale 0 to 10, 0 no effect, 10 complete control
[3] = Preemergence, Rate 62 g/ha, scale 0 to 10, 0 is no effect, 10 is complete control
[4] = Preemergence, Rate 125 g/ha, scale 0 to 10 (0 no effect, 10 complete control)
[5] = Preemergence, Rate 250 g/ha, scale of 0 to 10 where 0 is no effect and 10 is complete control
[6] = Preemergence, Rate 500 g/ha, scale 0 (no effect) to 10 (complete control)
[7] = Rate 125 g/ha, Postemergence, scale 0 to 10, 0 no effect, 10 complete control
[8] = Rate 500 g/ha, Postemergence, 0 to 10 scale (0 no effect, 10 complete control)
[9] = Rate 62 g/ha, headed Pre-emergence (flood test species), scale 0 to 10 (0 no effect, 10 complete control)
[10] = Rate 125 g/ha, Postemergence section (flood test species), scale 0 to 10, 0 no effect, 10 complete control
[11] = Rate 125 g/ha, Pre-emergence, flood test species, scale 0 to 10 where 0 is no effect and 10 is complete control
[12] = Rate 250 g/ha, headed Pre-emergence (flood test species), scale 0 to 10 (0 no effect, 10 complete control)
[13] = Rate 500 g/ha, Postemergence section of Table B, 0 to 10 scale (0 no effect, 10 complete control)
[14] = Rate 500 g/ha, headed Pre-emergence (flood test species), scale 0 to 10 (0 no effect, 10 complete control)
[15] = Rate 1000 g/ha, Pre-emergence (as headed), scale 0 to 10
[16] = flood test, listed under Postemergence, Rate 250 g/ha, scale 0 to 10, 0 no effect, 10 complete control
[17] = Rate 2000 g/ha, Pre-emergence (as headed), scale 0 to 10

Cc1cccc(C)c1-n1c(=O)on(C(=O)N(c2ccc(F)cc2)C(C)C)c1=O [Compound 18]
Morningglory plant response rating (morningglory; [1]): 1 | Morningglory plant response rating (morningglory; [2]): 2 | Plant response rating, Morningglory (morningglory; [3]): 0 | Plant response rating, Morningglory (morningglory; [4]): 0 | Plant response rating, Morningglory (morningglory; [5]): 0 | Morningglory plant response rating (morningglory; [6]): 2 | Morningglory plant response rating (morningglory; [7]): 1 | Morningglory plant response rating (morningglory; [8]): 3 | Blackgrass plant response rating (blackgrass; [1]): 0 | Blackgrass plant response rating (blackgrass; [2]): 3 | Plant response rating, Blackgrass (blackgrass; [3]): 2 | Plant response rating, Blackgrass (blackgrass; [4]): 0 | Plant response rating, Blackgrass (blackgrass; [5]): 5 | Blackgrass plant response rating (blackgrass; [6]): 5 | Blackgrass plant response rating (blackgrass; [7]): 0 | Blackgrass plant response rating (blackgrass; [8]): 3 | Corn plant response rating (corn; [1]): 0 | Corn plant response rating (corn; [2]): 0 | Plant response rating, Corn (corn; [3]): 0 | Plant response rating, Corn (corn; [4]): 0 | Plant response rating, Corn (corn; [5]): 0 | Corn plant response rating (corn; [6]): 0 | Corn plant response rating (corn; [7]): 0 | Corn plant response rating (corn; [8]): 0 | B. signalgrass plant response rating (surinam grass; [1]): 0 | B. signalgrass plant response rating (surinam grass; [2]): 0 | Plant response rating, B. signalgrass (surinam grass; [3]): 0 | Plant response rating, B. signalgrass (surinam grass; [4]): 0 | Plant response rating, B. signalgrass (surinam grass; [5]): 7 | B. signalgrass plant response rating (surinam grass; [6]): 8 | B. signalgrass plant response rating (surinam grass; [7]): 0 | B. signalgrass plant response rating (surinam grass; [8]): 2 | Crabgrass plant response rating (crabgrass; [1]): 0 | Crabgrass plant response rating (crabgrass; [2]): 7 | Plant response rating, Crabgrass (crabgrass; [3]): 6 | Plant response rating, Crabgrass (crabgrass; [4]): 5 | Plant response rating, Crabgrass (crabgrass; [5]): 8 | Crabgrass plant response rating (crabgrass; [6]): 10 | Crabgrass plant response rating (crabgrass; [7]): 3 | Crabgrass plant response rating (crabgrass; [8]): 9 | Wheat plant response rating (wheat; [1]): 0 | Wheat plant response rating (wheat; [2]): 0 | Plant response rating, Wheat (wheat; [3]): 0 | Plant response rating, Wheat (wheat; [4]): 0 | Plant response rating, Wheat (wheat; [5]): 0 | Wheat plant response rating (wheat; [6]): 0 | Wheat plant response rating (wheat; [7]): 0 | Barnyardgrass plant response rating (bamyardgrass; [1]): 0 | Barnyardgrass plant response rating (bamyardgrass; [9]): 2 | Barnyardgrass plant response rating (bamyardgrass; [10]): 0 | Barnyardgrass plant response rating (bamyardgrass; [11]): 2 | Barnyardgrass plant response rating (bamyardgrass; [12]): 2 | Barnyardgrass plant response rating (bamyardgrass; [13]): 10 | Plant response rating, Barnyardgrass (bamyardgrass; [14]): 8 | Barnyardgrass plant response rating (bamyardgrass; [15]): 9 | Barnyardgrass plant response rating (bamyardgrass; Rate 2000 g/ha, Pre-emergence (as headed), scale 0 to 10, 0 no effect, 10 complete control): 9 | Barnyardgrass plant response rating (bamyardgrass; [16]): 9 | Wild oats plant response rating (wild oat; [1]): 0 | Wild oats plant response rating (wild oat; [2]): 0 | Plant response rating, Wild oats (wild oat; [4]): 0 | Plant response rating, Wild oats (wild oat; [5]): 0 | Wild oats plant response rating (wild oat; [6]): 5 | Wild oats plant response rating (wild oat; [7]): 0 | Rape plant response rating (rape; [1]): 0 | Rape plant response rating (rape; [2]): 0 | Plant response rating, Rape (rape; [3]): 0 | Plant response rating, Rape (rape; [4]): 0 | Plant response rating, Rape (rape; [5]): 0 | Rape plant response rating (rape; [6]): 2 | Rape plant response rating (rape; [7]): 0 | Rape plant response rating (rape; [8]): 1 | Giant foxtail plant response rating (giant foxtail; [1]): 0 | Giant foxtail plant response rating (giant foxtail; [2]): 1 | Plant response rating, Giant foxtail (giant foxtail; [3]): 2 | Plant response rating, Giant foxtail (giant foxtail; [4]): 5 | Plant response rating, Giant foxtail (giant foxtail; [5]): 8 | Giant foxtail plant response rating (giant foxtail; [6]): 9 | Giant foxtail plant response rating (giant foxtail; [7]): 1 | Giant foxtail plant response rating (giant foxtail; [8]): 3 | S. Flatsedge plant response rating (smallflower flatsedge; [1]): 0 | S. Flatsedge plant response rating (smallflower flatsedge; Pre-emergence, Rate 1000 g/ha, scale 0 to 10 (0 no effect, 10 complete control)): 0 | S. Flatsedge plant response rating (smallflower flatsedge; [9]): 0 | S. Flatsedge plant response rating (smallflower flatsedge; [10]): 0 | S. Flatsedge plant response rating (smallflower flatsedge; [11]): 0 | S. Flatsedge plant response rating (smallflower flatsedge; [12]): 0 | Plant response rating, S. Flatsedge (smallflower flatsedge; [14]): 6 | S. Flatsedge plant response rating (smallflower flatsedge; [17]): 0 | S. Flatsedge plant response rating (smallflower flatsedge; [16]): 6 | Sugarbeets plant response rating (sugar beet; [1]): 0 | Sugarbeets plant response rating (sugar beet; [2]): 0 | Plant response rating, Sugarbeets (sugar beet; [3]): 0 | Plant response rating, Sugarbeets (sugar beet; [4]): 0 | Plant response rating, Sugarbeets (sugar beet; [5]): 2 | Sugarbeets plant response rating (sugar beet; [6]): 4 | Sugarbeets plant response rating (sugar beet; [7]): 0 | Redroot pigweed plant response rating (pigweed; [1]): 1 | Redroot pigweed plant response rating (pigweed; [2]): 1 | Plant response rating, Redroot pigweed (pigweed; [3]): 4 | Plant response rating, Redroot pigweed (pigweed; [4]): 7 | Plant response rating, Redroot pigweed (pigweed; [5]): 8 | Redroot pigweed plant response rating (pigweed; [6]): 9 | Redroot pigweed plant response rating (pigweed; [7]): 1 | Redroot pigweed plant response rating (pigweed; [8]): 6 | Bedstraw plant response rating (bedstraw; [1]): 2 | Bedstraw plant response rating (bedstraw; [2]): 7 | Plant response rating, Bedstraw (bedstraw; [3]): 0 | Plant response rating, Bedstraw (bedstraw; [4]): 0 | Plant response rating, Bedstraw (bedstraw; [5]): 0 | Bedstraw plant response rating (bedstraw; [6]): 3 | Bedstraw plant response rating (bedstraw; [7]): 7 | Bedstraw plant response rating (bedstraw; [8]): 9 | Nutsedge plant response rating (purple nutsedge; [1]): 0 | Nutsedge plant response rating (purple nutsedge; [2]): 0 | Plant response rating, Nutsedge (purple nutsedge; [3]): 0 | Plant response rating, Nutsedge (purple nutsedge; [4]): 0 | Plant response rating, Nutsedge (purple nutsedge; [5]): 0 | Nutsedge plant response rating (purple nutsedge; [6]): 0 | Nutsedge plant response rating (purple nutsedge; [7]): 0 | Nutsedge plant response rating (purple nutsedge; [8]): 0 | Rice plant response rating (rice; [1]): 0 | Rice plant response rating (rice; [9]): 0 | Rice plant response rating (rice; [10]): 0 | Rice plant response rating (rice; [11]): 0 | Rice plant response rating (rice; [12]): 0 | Rice plant response rating (rice; [13]): 5 | Plant response rating, Rice (rice; [14]): 0 | Rice plant response rating (rice; [15]): 0 | Rice plant response rating (rice; [17]): 0 | Rice plant response rating (rice; [16]): 2
